Test results published in patent US10093683B2, “Factor XIa inhibitors” (Merck Sharp & Dohme Corp., priority 2014, dated 2018).
Read-outs that look alike come from different tables or passages of the source.

Biological target: human Factor XIa (Homo sapiens (Human), UniProt P03951)
Assay: Factor XIa Assay
Type: biochemical
Settings: read-out: FXIa Ki
Description: The effectiveness of a compound of the present invention as an inhibitor of Coagulation Factor XIa can be determined using a relevant purified serine protease, and an appropriate synthetic substrate. The rate of hydrolysis of the chromogenic or fluorogenic substrate by the relevant serine protease was measured both in the absence and presence of compounds of the present invention. Assays were conducted at room temperature or at 37° C. […] A decrease in the rate of fluorescence change in the presence of inhibitor is indicative of enzyme inhibition. Such methods are known to one skilled in the art. The results of this assay are expressed as the inhibitory constant, Ki.
Factor XIa determinations were made in 50 mM HEPES buffer at pH 7.4 containing 150 mM NaCl, 5 mM CaCl2, and 0.1% PEG 8000 (polyethylene glycol; JT Baker or Fisher Scientific). Determinations were made using purified human Factor XIa at a final concentration of 40 pM (Sekisui Diagnostics) and he synthetic substrate, Z-Gly-Pro-Arg-AFC, TFA salt (Sigma #C0980) at a concentration of 100 μM.
Times required to achieve equilibration between enzyme and inhibitor were determined in control experiments. Initial velocities of product formation in the absence (Vo) or presence of inhibitor (Vi) were measured. Assuming competitive inhibition, and that unity is negligible compared Km/[S], [I]/e, and [I]/e (where [S], [I], and e respectively represent the total concentrations, of substrate, inhibitor and enzyme), the equilibrium constant (Ki) for dissociation of the inhibitor from the enzyme can be obtained from the dependence of Vo/Vi on [I] shown in the following equation.

[1] = purified human Factor XIa 40 pM, Z-Gly-Pro-Arg-AFC 100 μM, pH 7.4

Sequence of human Factor XIa (P03951 388-625): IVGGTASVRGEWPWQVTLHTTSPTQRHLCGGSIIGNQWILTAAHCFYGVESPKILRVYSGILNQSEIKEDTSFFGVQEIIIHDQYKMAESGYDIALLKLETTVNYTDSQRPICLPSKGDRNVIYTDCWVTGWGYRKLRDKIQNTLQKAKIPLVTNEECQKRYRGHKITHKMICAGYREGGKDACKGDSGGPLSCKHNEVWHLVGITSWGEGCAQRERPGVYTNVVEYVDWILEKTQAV
Sequence of human Factor XIa (P03951 19-387 partner): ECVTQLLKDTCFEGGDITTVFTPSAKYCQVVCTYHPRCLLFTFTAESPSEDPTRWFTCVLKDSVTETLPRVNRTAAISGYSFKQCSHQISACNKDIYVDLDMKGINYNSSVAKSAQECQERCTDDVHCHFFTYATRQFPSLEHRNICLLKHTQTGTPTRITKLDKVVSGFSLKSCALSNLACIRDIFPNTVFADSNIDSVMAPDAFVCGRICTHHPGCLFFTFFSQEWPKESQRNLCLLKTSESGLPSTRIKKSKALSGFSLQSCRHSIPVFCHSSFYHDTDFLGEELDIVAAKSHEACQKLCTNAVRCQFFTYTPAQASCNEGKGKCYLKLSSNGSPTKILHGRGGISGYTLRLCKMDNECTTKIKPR

Ki [1] [nM] | Ki [nM] | Compound
4.21 | – | COC(=O)Nc1ccc(C(=O)NC(C[C@@H]2CCCO2)C(=O)N2CCC[C@@]3(C2)OC(=O)Nc2ccc(Cl)c(F)c23)cc1 (single isomer, unassigned) [Example 116B]
360 | – | COC(=O)Nc1ccc(-c2ncc(C(Cc3ccccc3)C(=O)N3CCC[C@@]4(C3)OC(=O)Nc3ccc(Cl)c(F)c34)[nH]2)cc1 (single isomer, unassigned) [Example 130A]
320 | – | COC(=O)Nc1ccc(-c2nnc(C(Cc3ccccc3)C(=O)N3CC[C@@]4(C3)OC(=O)Nc3ccc(Cl)c(F)c34)o2)cc1 (single isomer, unassigned) [Example 129B]
– | 5000 | O=C1Nc2ccc(Cl)cc2C2(CCN(C(=O)[C@H](Cc3ccccc3)NC(=O)c3ccc(C(=O)O)cc3)C2)O1 (single isomer, unassigned) [Example 140b]
3780 | – | O=C1Nc2ccc(Cl)cc2[C@@]2(CCN(C(=O)[C@@H](Cc3ccccc3)C(=O)Nc3ccc(C(=O)O)cc3)C2)O1 [Example 121d, 4-((S)-2-benzyl-3-((R)-6-chloro-2-oxo-1,2-dihydrospiro[benzo[d][1,3]oxazine-4,3′-pyrrolidin]-1′-yl)-3-oxopropanamido)benzoic acid]
> 875 | – | COC(=O)Nc1ccc(-c2nnc([C@H](Cc3ccccc3)C(=O)N3CC[C@@]4(C3)OC(=O)Nc3ccc(Cl)c(F)c34)o2)cc1 [Example 129A, methyl (4-(5-((S)-1-((R)-6-chloro-5-fluoro-2-oxo-1,2-dihydrospiro[benzo[d][1,3]oxazine-4,3′-pyrrolidin]-1′-yl)-1-oxo-3-phenylpropan-2-yl)-1,3,4-oxadiazol-2-yl)phenyl)carbamate]
3470 | – | COC(=O)Nc1ccc(C(=O)N[C@@H](Cc2ccccc2)C(=O)N2CC[C@]3(C2)OC(=O)Nc2ncc(Cl)cc23)cc1 [Example 1a, methyl (4-(((S)-1-((S)-6-chloro-2-oxo-1,2-dihydrospiro[pyrido[2,3-d][1,3]oxazine-4,3′-pyrrolidin]-1′-yl)-1-oxo-3-phenylpropan-2-yl)carbamoyl)phenyl)carbamate]
> 875 | – | COC(=O)Nc1ccc(-c2ncc(C(Cc3ccccc3)C(=O)N3CCC[C@@]4(C3)OC(=O)Nc3ccc(Cl)c(F)c34)[nH]2)cc1 (single isomer, unassigned) [Example 130B]

More lines, now with the values behind:

Compound | Ki [1] [nM] | Ki [nM]
COC(=O)Nc1ccc(C(=O)N[C@@H](CC(=O)NC2CCOCC2)C(=O)N2CC[C@@]3(C2)OC(=O)Nc2ccc(Cl)cc23)cc1 [Example 89, methyl (4-(((S)-1-((R)-6-chloro-2-oxo-1,2-dihydrospiro[benzo[d][1,3]oxazine-4,3′-pyrrolidin]-1′-yl)-1,4-dioxo-4-((tetrahydro-2H-pyran-4-yl)amino)butan-2-yl)carbamoyl)phenyl)carbamate] | 59.2 | –
O=C1Nc2ccc(Cl)cc2C2(CCN(C(=O)[C@H](Cc3ccccc3)NC(=O)c3ccon3)C2)O1 (some centres unmarked) [Example 156] | – | 2150
COC(=O)Nc1ccc2[nH]c(C(Cc3ccccc3)C(=O)N3CCC[C@@]4(C3)OC(=O)Nc3ccc(Cl)c(F)c34)cc2c1 (stereo partly drawn) [Example 134, methyl (2-(1-((R)-6-chloro-5-fluoro-2-oxo-1,2-dihydrospiro[benzo[d][1,3]oxazine-4,3′-piperidin]-1′-yl)-1-oxo-3-phenylpropan-2-yl)-1H-indol-5-yl)carbamate] | > 875 | –
COC/C=C/c1ccc(C[C@H](NC(=O)c2ccc(NC(=O)OC)cc2)C(=O)N2CC[C@@]3(C2)OC(=O)Nc2ccc(Cl)cc23)cc1 [Example 80, methyl (4-(((S)-1-((R)-6-chloro-2-oxo-1,2-dihydrospiro[benzo[d][1,3]oxazine-4,3′-pyrrolidin]-1′-yl)-3-(4-((E)-3-methoxyprop-1-en-1-yl)phenyl)-1-oxopropan-2-yl)carbamoyl)phenyl)carbamate] | 75 | –
COC(=O)Nc1ccc(C(=O)N[C@@H](CCCCO)C(=O)N2CCC3(C2)OC(=O)Nc2ccc(Cl)cc23)cc1 (stereo partly drawn) [Example 51, methyl (4-(((2S)-1-(6-chloro-2-oxo-1,2-dihydrospiro[benzo[d][1,3]oxazine-4,3′-pyrrolidin]-1′-yl)-6-hydroxy-1-oxohexan-2-yl)carbamoyl)phenyl)carbamate] | 55.7 | –
O=C1Nc2ccc(Cl)cc2[C@@]2(CCCN(C(=O)C(Cc3ccc(F)cc3)c3nc4ccc(C(=O)O)cc4[nH]3)C2)O1 (single isomer, unassigned) [Example 132A (isomer A)] | 61.7 | –
N#Cc1ccc(C(=O)N[C@@H](Cc2ccccc2)C(=O)N2CCC3(C2)OC(=O)Nc2ccc(Cl)cc23)cc1 (stereo partly drawn) [Example 150, N-((2S)-1-(6-chloro-2-oxo-1,2-dihydrospiro[benzo[d][1,3]oxazine-4,3′-pyrrolidin]-1′-yl)-1-oxo-3-phenylpropan-2-yl)-4-cyanobenzamide] | – | 430
O=C1Nc2ccc(Cl)cc2C2(CCN(C(=O)[C@H](Cc3ccccc3)NC(=O)C3(c4ccc(C(=O)O)cc4)CC3)C2)O1 (some centres unmarked) [Example 161] | – | 4490
O=C1Nc2ccc(Cl)cc2C2(CCN(C(=O)[C@H](Cc3ccccc3)NC(=O)c3ccc4[nH]ccc4n3)C2)O1 (some centres unmarked) [Example 153] | – | 488
COC(=O)Nc1ccc(C(=O)N[C@@H](CCCCNC(=O)C(F)(F)F)C(=O)N2CCC[C@@]3(C2)OC(=O)Nc2ccc(Cl)cc23)cc1 [Example 54, methyl (4-(((S)-1-((R)-6-chloro-2-oxo-1,2-dihydrospiro[benzo[d][1,3]oxazine-4,3′-piperidin]-1′-yl)-1-oxo-6-(2,2,2-trifluoroacetamido)hexan-2-yl)carbamoyl)phenyl)carbamate] | 52 | –
O=C1Nc2ccc(Cl)cc2C2(CCN(C(=O)[C@H](Cc3ccccc3)NC(=O)c3ccc(CO)nc3)C2)O1 (some centres unmarked) [Example 158] | – | 752
O=C(Nc1ccc(C(=O)O)cc1)N[C@@H](Cc1ccccc1)C(=O)N1CCC2(C1)OC(=O)Nc1ccc(Cl)cc12 (stereo partly drawn) [Example 277, 4-(3-((2S)-1-(6-chloro-2-oxo-1,2-dihydrospiro[benzo[d][1,3]oxazine-4,3′-pyrrolidin]-1′-yl)-1-oxo-3-phenylpropan-2-yl)ureido)benzoic acid] | 5000 | –
O=C1Nc2ccc(Cl)cc2[C@@]2(CCCN(C(=O)C(CC3CC3)Nc3n[nH]c4cc(F)ccc34)C2)O1 (stereo partly drawn) [Example 135, (4R)-6-chloro-1′-(3-cyclopropyl-2-((6-fluoro-1H-indazol-3-yl)amino)propanoyl)spiro[benzo[d][1,3]oxazine-4,3′-piperidin]-2(1H)-one] | > 8750 | –
COC(=O)Nc1ccc(C(=O)N[C@@H](CC2CC2)C(=O)N2CCC[C@@]3(C2)OC(=O)Nc2ccc(Cl)cc23)c(Cl)c1 [Example 201, methyl (3-chloro-4-(((S)-1-((R)-6-chloro-2-oxo-1,2-dihydrospiro[benzo[d][1,3]oxazine-4,3′-piperidin]-1′-yl)-3-cyclopropyl-1-oxopropan-2-yl)carbamoyl)phenyl)carbamate] | – | 91.3
O=C1Nc2ccc(Cl)cc2C2(CCN(C(=O)[C@H](Cc3ccccc3)NC(=O)c3ccc(NC(=O)C(F)(F)F)cc3)C2)O1 (stereo partly drawn) [Example 162, N-((2S)-1-(6-chloro-2-oxo-1,2-dihydrospiro[benzo[d][1,3]oxazine-4,3′-pyrrolidin]-1′-yl)-1-oxo-3-phenylpropan-2-yl)-4-(2,2,2-trifluoroacetamido)benzamide] | – | 594
O=C1Nc2ccc(Cl)c(F)c2[C@@]2(CCCN(C(=O)[C@H](Cc3ccccc3)NC(=O)c3ccc(NCC(F)(F)F)nc3)C2)O1 [Example 212] | – | 133
COC(=O)Nc1ccc(C(=O)N[C@@H](CC(=O)NC2CCC2)C(=O)N2CCC[C@@]3(C2)OC(=O)Nc2ccc(Cl)cc23)cc1 [Example 86, methyl (4-(((S)-1-((R)-6-chloro-2-oxo-1,2-dihydrospiro[benzo[d][1,3]oxazine-4,3′-piperidin]-1′-yl)-4-(cyclobutylamino)-1,4-dioxobutan-2-yl)carbamoyl)phenyl)carbamate] | 33.7 | –
O=C1Nc2ccc(Cl)cc2[C@@]2(CCCN(C(=O)C(Cc3ccc(F)cc3)c3nc(Cl)c(-c4ccc(F)cc4)[nH]3)C2)O1 (stereo partly drawn) [Example 127, (4R)-6-chloro-1′-(2-(4-chloro-5-(4-fluorophenyl)-1H-imidazol-2-yl)-3-(4-fluorophenyl)propanoyl)spiro[benzo[d][1,3]oxazine-4,3′-piperidin]-2(1H)-one] | 5000 | –
O=C1Nc2ccc(Cl)cc2C2(CCN(C(=O)[C@H](Cc3ccccc3)NC(=O)c3ccc4ncc(O)nc4c3)C2)O1 (some centres unmarked) [Example 262] | – | 512
Cc1nc(N)sc1C(=O)N[C@@H](Cc1ccccc1)C(=O)N1CCC2(C1)OC(=O)Nc1ccc(Cl)cc12 (some centres unmarked) [Example 170] | – | 508
NC(=O)c1n[nH]c2c1CN(C(=O)N[C@@H](Cc1ccccc1)C(=O)N1CCC3(C1)OC(=O)Nc1ccc(Cl)cc13)C2 (stereo partly drawn) [Example 278, N5-((2S)-1-(6-chloro-2-oxo-1,2-dihydrospiro[benzo[d][1,3]oxazine-4,3′-pyrrolidin]-1′-yl)-1-oxo-3-phenylpropan-2-yl)-4,6-dihydropyrrolo[3,4-c]pyrazole-3,5(1H)-dicarboxamide] | 5000 | –
